Measurements reported in patent US6028198A (priority 1993, dated 2000).

What was measured:
[1] = mouse, in vivo
[2] = set-up: species or system domestic cat; conditions: in vivo; for Equivalent dose (ED50), preventing motion sickness-like syndrome in cats: cat, po
[3] = set-up: species or system Japanese white rabbit; conditions: rabbit, in vivo; for Equivalent dose (ED50), preventing adversive circling syndrome in rabbits: po
[4] = mouse, in vivo; remark: listed apart in the source
[5] = mouse, in vivo; remark: listed apart in the source
[6] = set-up: species or system human (volunteers); conditions: in vivo
[7] = set-up: species or system human (medical worker volunteers); conditions: in vivo, po
[8] = set-up: species or system human; conditions: in vivo
[9] = set-up: species or system human (sailor volunteers); conditions: in vivo, po
[10] = in vivo
[11] = set-up: species or system human (volunteers); conditions: in vivo; remark: listed apart in the source

CN1[C@@H]2C[C@@H](OC(=O)[C@H](CO)c3ccccc3)C[C@H]1[C@@H]1O[C@@H]12 [Scopolamine]
B/A (ratio of ED50), potentiating sodium pentobarbital in mice [1]: 0.24 | Equivalent dose (ED50), preventing motion sickness-like syndrome in cats [2]: 0.059 mg/kg | B/A (ratio of ED50 of scopolamine to that of the composition), motion sickness-like syndrome in cats [2]: 0.30 | B/A (ratio of ED50 of scopolamine to that of the composition), adversive circling in rabbits [3]: 0.30 | Equivalent dose (ED50), preventing adversive circling syndrome in rabbits [3]: 0.129 mg/kg | B/A (ratio of ED50), mydriatic effect in mice [4]: 0.072 | B/A (ratio of ED50), inhibiting salivary secretion in mice [5]: 0.13

OC(CCCN1CCCCC1)(c1ccccc1)c1ccccc1 [Diphenidol]
C/A (ratio of ED50), potentiating sodium pentobarbital in mice [1]: 6.9 | Effect on changes of electronystagmogram [6]: obvious efficacy | Nystagmus after rotation, postmedication ([6]; po): 11.2 ± 6.2 degree/s | Nystagmus during rotation, postmedication ([6]; po): 6.9 ± 3.4 degree/s | Equivalent dose (ED50), preventing motion sickness-like syndrome in cats [2]: 20.18 mg/kg | C/A (ratio of ED50 of diphenidol to that of the composition), motion sickness-like syndrome in cats [2]: 91.3 | C/A (ratio of ED50 of diphenidol to that of the composition), adversive circling in rabbits [3]: > 115 | Equivalent dose (ED50), preventing adversive circling syndrome in rabbits [3]: > 50 mg/kg | Ineffective rate, Bus [7]: 18.2% | Significantly effective rate, Bus [7]: 49.1% | Total effective rate, Bus [7]: 63.6% | Total effective, significantly effective and ineffective rates compared with placebo [8]: significantly different from those of the placebo group | C/A (ratio of ED50), mydriatic effect in mice [4]: 10.5 | Ineffective rate, Ship [9]: 10.0% | Significantly effective rate, Ship [9]: 66.7% | Total effective rate, Ship [9]: 76.7% | Incidence of somnolence [10]: 18.7% | C/A (ratio of ED50), inhibiting salivary secretion in mice [5]: 13.6 | Effect on changes of electrogastrogram of body of stomach and gastric antrum [11]: obvious efficacy | Amplitude of electrogastrogram of antrum of stomach, postmedication ([11]; po): 414 ± 265 μV | Amplitude of electrogastrogram of body of stomach, postmedication ([11]; po): 396 ± 227 μV
